Format in all cases: cell-based
The target in assay [1] is T1, mSUCNR1 (Mus musculus, UniProt Q99MT6).
T1 construct: FLAG (own knowledge: pCMV-Tag 2B is an N-terminal FLAG vector); host or cells: HEK-293, transient transfection with Lipofectamine-2000
T1 sequence (Q99MT6 1-317): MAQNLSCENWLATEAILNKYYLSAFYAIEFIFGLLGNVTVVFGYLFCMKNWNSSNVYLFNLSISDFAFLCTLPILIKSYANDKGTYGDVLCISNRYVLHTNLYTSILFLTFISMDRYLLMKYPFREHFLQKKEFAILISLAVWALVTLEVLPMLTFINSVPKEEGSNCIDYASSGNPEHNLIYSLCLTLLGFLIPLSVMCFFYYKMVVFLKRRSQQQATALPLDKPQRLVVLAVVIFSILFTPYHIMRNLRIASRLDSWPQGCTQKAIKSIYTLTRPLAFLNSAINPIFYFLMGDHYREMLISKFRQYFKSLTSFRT
The assay can be described thus: IP3 turnover assay in mSUCNR1 transfected HEK-293 cells. To be noted: for mSUCNR1 efficacy, %: efficacy relative to succinate (100%), HEK cells (N = 3); for mSUCNR1 efficacy, % / mSUCNR1 % @10^−4M: IP3 turnover; for mSUCNR1 % @10^−4M: relative to succinate (100%). As to the method: (§1) Receptor constructs for mSUCNR1 and hSUCNR1 were bought from Origene and cloned into the eukaryotic expression vector pCMV-Tag(2B) (Stratagene).
(§2) Transient transfection of the HEK-293 cells was done with Lipofectamine-2000 according to manufacturer’s protocol. Cells were supplemented with fresh medium after 5 h.
(§3) 96-well plates were coated with poly-D-lysine and HEK-293 cells were plated (35.000 cells/well). Cells were transfected for 5 h the following day and subsequently incubated O/N with 0.5 μCi/mL myo[3H]inositol (Perkin Elmer) in 100 μL growth medium. On day 3 cells were washed with 200 µL HBSS/well (Gibco, Life Technologies) followed by a pre-incubation (30 min, 37 °C) with 100 µL HBSS supplemented with 10 mM LiCl. Cells were stimulated with ligand (120 min, 37 °C) and lysed with 50 µL 10 mM formic acid (30 min on ice). In a white 96 well plate 20 µL cell extracts and 80 µL 1:8 diluted YSi scintillation beads (Perkin Elmer) were mixed. The plate was spun down, and a Packard Top Count NXT counter recorded light emission (scintillation) after an 8 h delay.

In assay [2] the test system is SUCNR1. The assay can be described thus: Active/inactive grouping by EC50 threshold (ALiBERO training set, Table S1). To be noted: active (1) / inactive (0), EC50 threshold of 10 µM. The source says: In brief, starting from the homology model supported by mutagenesis data[4], ALiBERO introduced receptor flexibility via Normal Mode Analysis and Monte Carlo sampling, to generate a small subset of receptor models (pockets). […] For a list of all compounds used in the optimisation protocol, see Table S1. Receptor structures were then chosen based on their ability to discriminate actives from inactives in a retrospective virtual screening using the docking protocol and scoring function in ICM (Molsoft L.L.C., San Diego, CA, USA)[20], as measured by the normalised square root area under the curve (NSQ_AUC). […] The ALiBERO-optimised receptor ensemble was subsequently validated in a virtual ligand screening using an external test set with a higher active:decoy ratio (~1:50).
ALiBERO is an iterative sampling-selection protocol for receptor optimisation that relies on the use of ligand information for selecting the best-performing receptor conformations. Homology models of the mouse SUCNR1 receptor were constructed according to Trauelsen et al.[4] and loaded into ICM (Molsoft L.L.C., San Diego, CA, USA). The structure was converted into an ICM object, thereby assigning protein atom types, optimising hydrogens and His, Pro, Asn, […] and Cys side-chain conformations. […] For a list of all compounds used in the optimisation protocol, see Table S1. ALiBERO was performed using the prepared receptor structure and ligand training set as input. Binding site residues were manually selected based on proximity to the position of MRS2500 in the superimposed structure of the P2Y1 receptor (PDB 4XNW). 100 elastic network normal mode analysis derived conformers were built in order to recreate backbone and side-chain flexibility (T = 300 K). Next, a flexible-ligand static-receptor small-scale virtual screening was performed on each of the receptor conformers, from which several pockets were selected for the following generation. The ligand and decoy molecules were docked into mSUCNR1, represented as pre-calculated potential grids and then sorted according to their ICM VLS scores. The maximum number of complementary pockets for each generation was set to 5 with a maximum of 10 generations. Receptor models were selected based on their combined screening performance, as determined by the normalised square root area under the curve, NSQ_AUC. After each round of virtual screening, an all-atom Monte Carlo side-chain refinement was performed to account for induced-by-ligand changes. NSQ_AUC values were calculated according to Katritch et al.[16].

Assay [3] deals with T2, hSUCNR1 (Homo sapiens, UniProt Q9BXA5).
T2 construct: FLAG (own knowledge: pCMV-Tag 2B is an N-terminal FLAG vector); host or cells: HEK-293, transient transfection with Lipofectamine-2000
T2 sequence (Q9BXA5 1-334): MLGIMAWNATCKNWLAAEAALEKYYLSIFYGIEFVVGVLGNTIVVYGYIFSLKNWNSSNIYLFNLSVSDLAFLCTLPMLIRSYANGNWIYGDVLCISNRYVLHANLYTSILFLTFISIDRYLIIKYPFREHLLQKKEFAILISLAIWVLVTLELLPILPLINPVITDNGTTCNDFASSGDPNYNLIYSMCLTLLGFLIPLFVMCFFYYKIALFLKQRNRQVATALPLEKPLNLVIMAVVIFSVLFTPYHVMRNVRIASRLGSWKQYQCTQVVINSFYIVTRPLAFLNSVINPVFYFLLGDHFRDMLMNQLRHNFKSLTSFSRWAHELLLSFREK
The assay can be described thus: IP3 turnover assay in hSUCNR1 transfected HEK-293 cells. To be noted: for hSUCNR1 efficacy, %: efficacy relative to succinate (100%), HEK cells (N = 3); for hSUCNR1 efficacy, % / hSUCNR1 % @10^−4M: IP3 turnover; for hSUCNR1 % @10^−4M: relative to succinate (100%). As for the experimental part: as §1, §2, §3

Setting [4] is: dose-response curves of induction of IP3 turnover in SUCNR1 transfected HEK cells (N = 3).
Where [5] appears, read: dose-response curves of induction of IP3 turnover in SUCNR1 transfected HEK cells (N = 3), read-out: mSUCNR1 pEC50 (converted).
Setting [6] is: dose-response curves of induction of IP3 turnover in SUCNR1 transfected HEK cells (N = 3), read-out: hSUCNR1 pEC50 (converted).

Like-named read-outs stand apart in the source and are kept apart here.

On to `O=C(O)C[C@H](NC(=O)c1ccc(Br)o1)C(=O)O` [Compound 4, (5-Bromofuran-2-carbonyl)-L-aspartic acid], for which the “mSUCNR1 pEC50” value in assay [1] (setting [4]) is 4.93 ± 0.05. The “mSUCNR1 efficacy, %” value in assay [1] is 95.8 ± 2.9%. Besides, the Active in assay [2] is 0 (inactive (0)). Besides, in assay [3] (setting [4]), the “hSUCNR1 pEC50” value was determined as 4.53 ± 0.13. For the same molecule, in assay [3], the “hSUCNR1 efficacy, %” value was 78.1 ± 7.5%.
As for `O=C(O)C[C@H](NC(=O)c1ccccc1Cl)C(=O)O` [Compound 5, (2-Chlorobenzoyl)-L-aspartic acid], the “mSUCNR1 % @10^−4M” value in assay [1] was 13% @10^−4M. In assay [2], the Active is 0 (inactive (0)). For the same molecule, in assay [3], the “hSUCNR1 % @10^−4M” value is given as 22% @10^−4M.
Turning to `O=C(O)C[C@H](NC(=O)c1cccc(I)c1)C(=O)O` [Compound 6, (3-Iodobenzoyl)-L-aspartic acid], the “mSUCNR1 % @10^−4M” value in assay [1] is 64% @10^−4M. In assay [2], the Active is 0 (inactive (0)). In addition, in assay [3], the “hSUCNR1 % @10^−4M” value amounted to 50% @10^−4M.
As to `O=C(O)C[C@H](NC(=O)c1ccc(Br)cc1)C(=O)O` [Compound 7, (4-Bromobenzoyl)-L-aspartic acid], in assay [1], the “mSUCNR1 % @10^−4M” value turned out to be 15% @10^−4M. Also, in assay [2], the Active was 0 (inactive (0)). Besides, the “hSUCNR1 % @10^−4M” value in assay [3] is reported as 8% @10^−4M.
As for `O=C(O)C[C@H](NC(=O)Cc1ccc(Br)cc1)C(=O)O` [Compound 8, (2-(4-Bromophenyl)acetyl)-L-aspartic acid], the “mSUCNR1 % @10^−4M” value in assay [1] was 11% @10^−4M. Moreover, the Active in assay [2] was 0 (inactive (0)). In assay [3], the “hSUCNR1 % @10^−4M” value came to 5% @10^−4M.
In the case of `O=C(O)C[C@H](NC(=O)Cc1ccc(-c2ccc(F)cc2)cc1)C(=O)O` [Compound 9, (2-(4′-Fluoro-[1,1′-biphenyl]-4-yl)acetyl)-L-aspartic acid], the “mSUCNR1 % @10^−4M” value in assay [1] is 15% @10^−4M. Besides, the Active in assay [2] is 0 (inactive (0)). Further, in assay [3], the “hSUCNR1 % @10^−4M” value was found to be 25% @10^−4M.
As for `O=C(O)C[C@H](NC(=O)c1ccc(-c2ccccc2)o1)C(=O)O` [Compound 10, (5-Phenylfuran-2-carbonyl)-L-aspartic acid], in assay [1], the EC50 is 692 nM and the “mSUCNR1 efficacy, %” value was found to be 81.3 ± 3.6%. Moreover, in assay [2], the Active is 1 (active (1)). Further, in assay [3], the EC50 is 5130 nM and the “hSUCNR1 efficacy, %” value came to 81.6 ± 8.4%.
In the case of `Cc1ccccc1-c1ccc(C(=O)N[C@@H](CC(=O)O)C(=O)O)o1` [Compound 11, (5-(o-Tolyl)furan-2-carbonyl)-L-aspartic acid], in assay [1], the EC50 was 741 nM and the “mSUCNR1 efficacy, %” value amounted to 76.7 ± 3.1%. Also, the Active in assay [2] is recorded as 1 (active (1)). Also, in assay [3], the EC50 is 5370 nM and the “hSUCNR1 efficacy, %” value is reported as 94.7 ± 8.7%.
Regarding `Cc1cccc(-c2ccc(C(=O)N[C@@H](CC(=O)O)C(=O)O)o2)c1` [Compound 12, (5-(m-Tolyl)furan-2-carbonyl)-L-aspartic acid], in assay [1], the EC50 is 851 nM and the “mSUCNR1 efficacy, %” value was 81.6 ± 3.0%. Further, the Active in assay [2] is recorded as 1 (active (1)). Further, in assay [3], the EC50 is 9550 nM and the “hSUCNR1 efficacy, %” value is given as 91.9 ± 5.3%.
Take `O=C(O)C[C@H](NC(=O)c1cccc(-c2ccc(OCC(F)(F)F)cc2)n1)C(=O)O` [Compound 32, (6-(4-(2,2,2-Trifluoroethoxy)phenyl)picolinoyl)-L-aspartic acid]: the values for the EC50 in assay [1] (setting [5]) and in assay [3] (setting [6]) were 100 nM and 58.9 nM, respectively. Further, the “mSUCNR1 efficacy, %” value in assay [1] was determined as 68.1 ± 2.5%. Besides, the “hSUCNR1 efficacy, %” value in assay [3] turned out to be 88.7 ± 6.1%.
Regarding `CCCOc1ccc(-c2cccc(C(=O)N[C@@H](CC(=O)O)C(=O)O)n2)cc1` [Compound 33, (6-(4-Propoxyphenyl)picolinoyl)-L-aspartic acid], the EC50 was 51.3 nM in assay [1] (setting [5]) and 58.9 nM in assay [3] (setting [6]). Further, the “mSUCNR1 efficacy, %” value in assay [1] turned out to be 61.5 ± 3.8%. Also, the “hSUCNR1 efficacy, %” value in assay [3] stood at 66.4 ± 7.2%.

Source of the values: PMC6030209, “Structure-Activity Investigations and Optimisations of Non-metabolite Agonists for the Succinate Receptor 1” (Scientific Reports, 2018).
